Reference: patent publication US9481648B2, “Kinase inhibitors” (Respivert Limited, priority 2013, dated 2016)
Read-outs that look alike come from different tables or passages of the source.

Columns and labels:
[1] = molecular target: Lck (Homo sapiens (Human), UniProt P06239); test: KINOMEscan enzyme binding assay (dissociation constant)
Procedure: (§1) Kinase enzyme binding activities of compounds disclosed herein may be determined using a proprietary assay which measures active site-directed competition binding to an immobilized ligand (Fabian, M. A. et al., Nature Biotechnol., 2005, 23:329-336). These assays may be conducted by DiscoverX (formerly Ambit; San Diego, Calif.). The percentage inhibition produced by incubation with a test compound may be calculated relative to the non-inhibited control.

[2] = molecular target: Syk (Homo sapiens (Human), UniProt P43405); test: as above
Procedure: as §1

[3] = molecular target: p38 MAPKα (Homo sapiens (Human), UniProt Q16539); test: as above
Procedure: as §1

[4] = molecular target: B-Raf (Homo sapiens (Human), UniProt P15056); test: KINOMEscan binding of kinase to its standard ligand
Procedure: as §1

[5] = molecular target: B-Raf (V600E) (Homo sapiens (Human), UniProt P15056, V600E); test: as above
Procedure: as §1

[6] = molecular target: GSK 3α (Homo sapiens (Human), UniProt P49840); test: GSK 3α enzyme inhibition (FRET, Z-LYTE; Method 2); format: biochemical; conditions: read-out: IC50 Values for Enzyme Inhibition GSK3α
In short: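 Z-LYTE FRET assay: GSK3-α (500 ng/mL stock) preincubated 105 min at RT with compound at 10, 1, 0.1 or 0.01 μg/mL stock. FRET peptide (8 μM stock) and ATP (40 μM stock) were then added for 1 h, followed by protease development for 1 h. Phosphorylation was read as coumarin/fluorescein emission ratio.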

[7] = tested on: TNBS-induced colitis in BDF1 mice; test: TNBS-induced colitis in mice (in vivo iv); design: species or system mouse; conditions: for inflammatory cell infiltrate in the reticular and laminar propria zones / ulcer grade and epithelial repair compared to the vehicle control: 5 mg/kg orally, 2 days; for inflammatory cell infiltrate in the reticular and laminar propria zones / ulcer grade and epithelial repair compared to the vehicle control / activity in in vivo model of colonic inflammation (histopathology analysis): TNBS-induced colitis, mice; for LP inflammation / Ulcer grade: TNBS-induced colitis in mice; for activity in in vivo model of colonic inflammation (histopathology analysis): conducted over 2 days
Procedure: Non-fasted, 10-12 week old, male BDF1 mice are dosed by oral gavage twice daily with either vehicle (5 mL/kg), reference item (Budesonide 2.5 mg/kg) or test compound (1 or 5 mg/kg) one day before (Day −1) stimulation of the inflammatory response by treatment with 2,4,6-trinitrobenzenesulphonic acid (TNBS) (15 mg/mL in 50% ethanol/50% saline). On Day 0 of the study TNBS (200 μL) is administered intra-colonically via a plastic catheter with BID dosing of the vehicle, reference or test compound continuing for 2 or 4 days. During the study, animals are weighed every day and stool observations are made and recorded as a score, based on stool consistency. At the time of sacrifice on Day 2 (or Day 4), the large intestine is removed and the length and weight recorded. Sections of the colon are taken for histopathology scoring to determine disease severity.

[8] = tested on: adoptive transfer (CD45RBhigh cells) colitis in SCID mice; test: Adoptive transfer in mice (in vivo v); design: species or system mouse; conditions: for % Inhibition (of the induction window between naïve and vehicle animals): colon weight:length
Procedure: On Study day 0, female Balb/C mice are terminated and spleens obtained for CD45RB^high cell isolation (Using SCID IBD cell Separation protocol). Approximately 4×10^5 cells/mL CD45RB^high cells are then injected intraperitoneally (100 μL/mouse) into female SCID animals. On study day 14, mice are weighed and randomized into treatment groups based on body weight. On Day 14, compounds are administered BID, via oral gavage, in a peanut oil vehicle at the dose levels outlined below in Tables 6a and 6b and a dose volume of 5 mL/kg. Treatment continues until study day 42, at which point the animals are necropsied 4 hours after the morning administration. The colon length and weight are recorded and used as a secondary endpoint in the study as a measurement of colon oedema. The colon is then divided into six cross-sections, four of which are used for histopathology scoring (primary endpoint) and two are homogenised for cytokine analysis. Data shown is the % inhibition of the induction window between naïve animals and vehicle animals, where higher inhibition implies closer to the non-diseased, naïve, phenotype.

[9] = Human hepatocyte stability test; format: in vitro ADME; conditions: human hepatocytes; for hepatocyte CLint: read-out: Mean intrinsic clearance
Procedure: (§2) Assessment of certain in vitro ADME (absorption, distribution, metabolism, and excretion) parameters for certain compounds of the invention was conducted by BioFocus (Saffron Walden, UK).

[10] = molecular target: CYP3A4 (Homo sapiens (Human), UniProt P08684); test: CYP3A4 inhibition study; format: in vitro ADME; conditions: for inhibition at 15 µM / inhibition at 5 μM: human; for inhibition at 15 µM: read-out: 15 μM % Inh; for inhibition at 5 μM: read-out: % Inh (inhibition at 5 μM reported instead)
Procedure: as §2

[11] = tested on: Salmonella typhimurium strain TA100; test: Mutagenicity assessment (bacterial reverse mutation screen); format: cell-based; conditions: strain TA100, presence or absence of S-9 mix, up to 1000 μg/plate analysable
Procedure: (§3) Studies were conducted by Sequani (Ledbury, Herefordshire, UK) to assess compounds of the invention for their ability to induce mutations in two histidine dependent auxotrophic mutants of Salmonella typhimurium, strains TA98 and TA100 in vitro.
(§4) The mutation screen was conducted using the plate incorporation method and was performed in both the presence and absence of S-9 mix (a liver post-mitochondrial fraction derived from the livers of Aroclor 1254 treated rats). The bacteria were exposed to test compounds dissolved in dimethylsulphoxide, which solvent was also used as the negative control. The dose levels used were 0.32, 1.6, 8, 40, 200, 1000 or 5000 μg/plate.
(§5) Precipitation was also noted in both strains at 1000 μg/plate in the presence and absence of S-9 mix.

[12] = tested on: Salmonella typhimurium strain TA98; test: as above; format: cell-based; conditions: strain TA98, presence or absence of S-9 mix, up to 1000 μg/plate analysable
Procedure: as §3, §4, §5

[13] = 1 mg/kg, adoptive transfer mouse model

GSK 3α, sequence (P49840 whole entry): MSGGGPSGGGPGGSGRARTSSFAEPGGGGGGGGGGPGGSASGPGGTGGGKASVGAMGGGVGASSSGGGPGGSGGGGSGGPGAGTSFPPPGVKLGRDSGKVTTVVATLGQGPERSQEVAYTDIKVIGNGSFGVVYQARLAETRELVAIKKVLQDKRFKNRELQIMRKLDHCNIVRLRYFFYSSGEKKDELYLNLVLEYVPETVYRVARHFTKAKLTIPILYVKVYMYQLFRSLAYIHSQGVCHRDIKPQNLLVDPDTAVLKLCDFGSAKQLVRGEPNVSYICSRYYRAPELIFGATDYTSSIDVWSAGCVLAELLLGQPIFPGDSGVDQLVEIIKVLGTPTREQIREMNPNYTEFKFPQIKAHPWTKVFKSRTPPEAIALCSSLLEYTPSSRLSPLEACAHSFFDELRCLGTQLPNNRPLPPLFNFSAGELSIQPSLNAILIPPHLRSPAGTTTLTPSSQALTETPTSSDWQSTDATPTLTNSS
B-Raf (V600E), sequence (P15056 whole entry V600E): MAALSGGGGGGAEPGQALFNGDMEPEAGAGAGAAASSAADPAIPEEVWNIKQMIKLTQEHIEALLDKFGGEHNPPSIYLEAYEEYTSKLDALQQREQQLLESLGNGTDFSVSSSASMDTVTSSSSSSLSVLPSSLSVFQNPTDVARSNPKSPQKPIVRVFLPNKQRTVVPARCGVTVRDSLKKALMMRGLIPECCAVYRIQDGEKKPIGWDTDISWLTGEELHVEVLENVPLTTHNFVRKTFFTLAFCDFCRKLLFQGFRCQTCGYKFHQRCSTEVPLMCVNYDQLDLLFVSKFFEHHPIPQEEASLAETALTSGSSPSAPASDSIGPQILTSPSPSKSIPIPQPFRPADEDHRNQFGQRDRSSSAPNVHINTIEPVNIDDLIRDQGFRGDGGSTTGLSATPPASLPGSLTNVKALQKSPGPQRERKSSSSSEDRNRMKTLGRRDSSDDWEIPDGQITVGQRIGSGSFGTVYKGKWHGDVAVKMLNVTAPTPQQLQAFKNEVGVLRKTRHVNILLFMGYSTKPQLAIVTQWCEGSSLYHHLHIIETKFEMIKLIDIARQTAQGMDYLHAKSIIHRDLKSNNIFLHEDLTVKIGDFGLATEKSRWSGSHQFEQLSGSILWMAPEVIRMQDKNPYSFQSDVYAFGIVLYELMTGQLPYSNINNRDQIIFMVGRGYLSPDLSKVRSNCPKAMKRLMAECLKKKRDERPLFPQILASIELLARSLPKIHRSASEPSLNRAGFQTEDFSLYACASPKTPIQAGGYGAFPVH
p38 MAPKα, sequence (Q16539 whole entry): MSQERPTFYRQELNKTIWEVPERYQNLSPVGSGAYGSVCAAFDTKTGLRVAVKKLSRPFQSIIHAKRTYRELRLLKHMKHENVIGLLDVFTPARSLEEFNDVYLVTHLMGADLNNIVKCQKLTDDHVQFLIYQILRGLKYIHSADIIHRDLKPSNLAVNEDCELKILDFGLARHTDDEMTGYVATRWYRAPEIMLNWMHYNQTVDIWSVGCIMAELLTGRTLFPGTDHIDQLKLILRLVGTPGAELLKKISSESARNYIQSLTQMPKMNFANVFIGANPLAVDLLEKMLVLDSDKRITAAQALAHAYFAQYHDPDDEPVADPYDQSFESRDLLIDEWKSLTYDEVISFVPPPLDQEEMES
Lck, sequence (P06239 whole entry): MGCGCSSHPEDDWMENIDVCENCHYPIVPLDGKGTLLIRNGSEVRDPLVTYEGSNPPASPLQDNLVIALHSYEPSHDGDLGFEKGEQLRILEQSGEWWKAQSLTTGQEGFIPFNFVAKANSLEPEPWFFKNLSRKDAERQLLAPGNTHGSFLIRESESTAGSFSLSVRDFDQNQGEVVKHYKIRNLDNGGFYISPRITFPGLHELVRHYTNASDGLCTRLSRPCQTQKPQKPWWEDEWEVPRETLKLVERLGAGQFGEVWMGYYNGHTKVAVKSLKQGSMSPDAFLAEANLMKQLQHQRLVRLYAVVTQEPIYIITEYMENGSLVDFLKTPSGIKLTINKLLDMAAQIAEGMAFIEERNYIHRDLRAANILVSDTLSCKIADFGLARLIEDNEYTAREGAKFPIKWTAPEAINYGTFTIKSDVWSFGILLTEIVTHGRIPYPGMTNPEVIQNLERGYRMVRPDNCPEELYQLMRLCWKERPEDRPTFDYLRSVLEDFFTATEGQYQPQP
CYP3A4, sequence (P08684 whole entry): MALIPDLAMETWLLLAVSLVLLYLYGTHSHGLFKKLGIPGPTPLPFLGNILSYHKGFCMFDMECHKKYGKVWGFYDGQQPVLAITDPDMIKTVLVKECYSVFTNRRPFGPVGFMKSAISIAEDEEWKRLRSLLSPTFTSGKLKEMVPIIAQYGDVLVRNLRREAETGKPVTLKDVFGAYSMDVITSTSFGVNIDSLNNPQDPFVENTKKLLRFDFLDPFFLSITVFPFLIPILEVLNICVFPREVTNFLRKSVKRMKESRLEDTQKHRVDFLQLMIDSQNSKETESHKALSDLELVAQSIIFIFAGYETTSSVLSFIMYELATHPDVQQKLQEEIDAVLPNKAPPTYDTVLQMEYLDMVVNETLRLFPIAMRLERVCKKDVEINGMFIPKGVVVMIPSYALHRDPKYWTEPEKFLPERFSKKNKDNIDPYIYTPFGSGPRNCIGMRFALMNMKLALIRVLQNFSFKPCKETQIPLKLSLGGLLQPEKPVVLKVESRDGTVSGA
B-Raf, sequence (P15056 whole entry): as the sequence (P15056 whole entry V600E) above, with E600V counted along it

SMILES: COCCOCCOCCNC(=O)c1cc(Nc2cc(Oc3ccc(NC(=O)Nc4cc(C(C)(C)C)cc(NS(C)(=O)=O)c4OC)c4ccccc34)ccn2)cc(OC)c1 [Example 3, 3-((4-((4-(3-(5-(tert-Butyl)-2-methoxy-3-(methylsulfonamido)phenyl)ureido)naphthalen-1-yl)oxy)pyridin-2-yl)amino)-5-methoxy-N-(2-(2-(2-methoxyethoxy)ethoxy)ethyl)benzamide]
- Kd [1]: 2.3 nM
- Kd [2]: 10 nM
- Kd [3]: 6.9 nM
- effect on the binding of the kinase B-Raf to its standard ligand [4]: did not have any significant effect
- effect on the binding of the kinase B-Raf (V600E) to its standard ligand [5]: did not have any significant effect
- IC50 [6]: 4320 nM
- inflammatory cell infiltrate in the reticular and laminar propria zones [7]: marked reduction
- ulcer grade and epithelial repair compared to the vehicle control [7]: marked improvements
- LP inflammation ([7]; 5 mg/kg oral): 3.8 ± 0.5
- Ulcer grade ([7]; 5 mg/kg oral): 3.7 ± 0.4
- activity in in vivo model of colonic inflammation (histopathology analysis) [7]: substantial activity
- activity in T cell driven in vivo model of colonic inflammation (relative ratios of colon weight to length) ([8]; adoptive transfer mouse model): significant activity
- Colon weight:length ([8]; adoptive transfer mouse model, 3 mg/kg BID oral): 0.039 ± 0.003
- half-life [9]: 36 min
- hepatocyte CLint [9]: 39 µL/min/1e6 cells
- IC50 ([10]; CYP3A4, 0 min preincubation): > 15000 nM
- IC50 ([10]; CYP3A4, 30 min preincubation): > 15000 nM
- inhibition at 15 µM ([10]; CYP3A4, 0 min preincubation): 22%
- inhibition at 15 µM ([10]; CYP3A4, 30 min preincubation): 51%

SMILES: COCCOCCOCCOc1cc(Nc2nccc(Oc3ccc(NC(=O)Nc4cc(C(C)(C)C)cc(NS(C)(=O)=O)c4OC)c4ccccc34)n2)cc(OC)c1 [Example 4, N-(5-(tert-Butyl)-2-methoxy-3-(3-(4-((2-((3-methoxy-5-(2-(2-(2-methoxyethoxy)ethoxy)-ethoxy)phenyl)amino)pyrimidin-4-yl)oxy)naphthalen-1-yl)ureido)phenyl)methanesulfonamide]
- Kd [1]: 3 nM
- Kd [2]: 14 nM
- Kd [3]: 19 nM
- effect on the binding of the kinase B-Raf to its standard ligand [4]: did not have any significant effect
- effect on the binding of the kinase B-Raf (V600E) to its standard ligand [5]: did not have any significant effect
- IC50 [6]: 2660 nM
- inflammatory cell infiltrate in the reticular and laminar propria zones [7]: marked reduction
- ulcer grade and epithelial repair compared to the vehicle control [7]: marked improvements
- LP inflammation ([7]; 1 mg/kg oral): 2.6 ± 0.3
- Ulcer grade ([7]; 1 mg/kg oral): 3.6 ± 0.4
- activity in in vivo model of colonic inflammation (histopathology analysis) [7]: substantial activity
- Colon weight:length ([8]; 0.3 mg/kg BID oral gavage, adoptive transfer mouse model): 0.030 ± 0.008
- % Inhibition (of the induction window between naïve and vehicle animals) ([8]; 0.3 mg/kg BID oral gavage): 62%
- Colon weight:length ([8]; 1 mg/kg BID oral gavage, adoptive transfer mouse model): 0.020 ± 0.002
- % Inhibition (of the induction window between naïve and vehicle animals) ([8]; 1 mg/kg BID oral gavage): 110%
- IFNγ level in colon tissue [8, 13]: 2.8 ± 0.8 pg/mL
- IL-8 level in colon tissue [8, 13]: 53.3 ± 23.0 pg/mL
- levels of pro-inflammatory cytokines in samples of colon tissue ([8]; adoptive transfer mouse model): significantly reduced
- half-life [9]: 48 min
- hepatocyte CLint [9]: 29 µL/min/1e6 cells
- IC50 ([10]; CYP3A4, 0 min preincubation): > 5000 nM
- IC50 ([10]; CYP3A4, 30 min preincubation): 2700 nM
- inhibition at 5 μM ([10]; CYP3A4, 0 min preincubation): 9%
- inhibition at 5 μM ([10]; CYP3A4, 30 min preincubation): 58%
- increases in revertant colonies [11]: no dose-related or statistically significant increases
- increases in revertant colonies [12]: no dose-related or statistically significant increases

SMILES: C#Cc1cc(Nc2nccc(Oc3ccc(NC(=O)Nc4cc(C(C)(C)C)cc(NS(C)(=O)=O)c4OC)c4ccccc34)n2)cc(C(=O)NCCOCCOCCOC)c1 [Example 16]
- effect on the binding of the kinase B-Raf to its standard ligand [4]: did not have any significant effect
- effect on the binding of the kinase B-Raf (V600E) to its standard ligand [5]: did not have any significant effect
- inflammatory cell infiltrate in the reticular and laminar propria zones [7]: marked reduction
- ulcer grade and epithelial repair compared to the vehicle control [7]: marked improvements
- activity in in vivo model of colonic inflammation (histopathology analysis) [7]: substantial activity
- activity in T cell driven in vivo model of colonic inflammation (relative ratios of colon weight to length) ([8]; adoptive transfer mouse model): significant activity
- levels of pro-inflammatory cytokines in samples of colon tissue ([8]; adoptive transfer mouse model): significantly reduced
- 15 μM % Inh ([10]; CYP3A4, 0 min preincubation): 31%
- 15 μM % Inh ([10]; CYP3A4, 30 min preincubation): 54%
- increases in revertant colonies [11]: no dose-related or statistically significant increases
- increases in revertant colonies [12]: no dose-related or statistically significant increases

SMILES: COc1c(NC(=O)Nc2ccc(Oc3ccnc(Nc4ccccc4)c3)c3ccccc23)cc(C(C)(C)C)cc1C(=O)NC1COC1 [Example 75, 5-(tert-Butyl)-2-methoxy-N-(oxetan-3-yl)-3-(3-(4-((2-(phenylamino)pyridin-4-yl)oxy)-naphthalen-1-yl)ureido)benzamide]
- Kd [1]: 2.5 nM
- Kd [2]: 8.8 nM
- Kd [3]: 14 nM
- effect on the binding of the kinase B-Raf to its standard ligand [4]: did not have any significant effect
- effect on the binding of the kinase B-Raf (V600E) to its standard ligand [5]: did not have any significant effect
- IC50 [6]: 6030 nM
- inflammatory cell infiltrate in the reticular and laminar propria zones [7]: marked reduction
- ulcer grade and epithelial repair compared to the vehicle control [7]: marked improvements
- LP inflammation ([7]; 5 mg/kg oral): 2.3 ± 0.4
- Ulcer grade ([7]; 5 mg/kg oral): 3.0 ± 0.4
- activity in in vivo model of colonic inflammation (histopathology analysis) [7]: substantial activity
- half-life [9]: > 200 min
- hepatocyte CLint [9]: < 7 µL/min/1e6 cells
- IC50 ([10]; CYP3A4, 0 min preincubation): > 15000 nM
- IC50 ([10]; CYP3A4, 30 min preincubation): > 15000 nM
- inhibition at 15 µM ([10]; CYP3A4, 0 min preincubation): 3%
- inhibition at 15 µM ([10]; CYP3A4, 30 min preincubation): 42%
- increases in revertant colonies [11]: no dose-related or statistically significant increases
- increases in revertant colonies [12]: no dose-related or statistically significant increases
